# Source: patent US6867320B2, “Substituted phenylalkanoic acid derivatives and use thereof” (Asahi Kasei Pharma Corporation, priority 2002, dated 2005)
# Key:
# [1] = system: IgE-stimulated footpad edema; experiment: Mouse IgE-stimulated footpad edema reaction; format: in vivo; conditions: C57BL/6 male mice, oral 0.1 to 500 mg/kg, compared with positive control group
# Description: 4. Suppressing Effect on Mouse IgE-stimulated Footpad Edema Reaction
# Suppression on footpad edema caused by IgE antibody as an allergic stimulant was studied by the following method. Groups of C57BL/6 male mice (9- to 11-week old) each consisting of five mice were used for the test. Anti-DNP-BSA IgE serum was subcutaneously administered in a volume of 20 μl to right hind leg footpad of each mouse one day before the test. A test compound was suspended or dissolved in purified water containing 0.5% methylcellulose and orally administered to the test animals at 0.1 to 500 mg/0.2 ml/kg. To the control group, purified water containing 0.5% methylcellulose was administered in a similar manner, which was not added with the test compound. Two hours after the administration of the test compound, 0.2 ml of a solution of DNP-BSA dissolved in physiological saline (Otsuka Pharmaceutical) at 2.5 μg/ml was intravenously administered. The thickness of right hind leg footpad was measured by using a digital thickness gauge (MITSUTOYO) 10, 15, 20, and 30 minutes after the administration of DNP-BSA. A difference of the thickness of footpad measured above and the thickness before the administration of the test compound measured beforehand was regarded as a thickness of edema.
# For the thickness of the edema at 10, 15, 20 and 30 minutes after the DNP-BSA administration, a graph was prepared indicating time in abscissa and the edema thickness in ordinate, and edema thickness AUC […] was obtained by calculation according to the following equation. Edema thickness AUC (mm·minute)=1/2×10×A+5×(A+B)/2+5×(B+C)/2+10×(C+D)/2 • A: Edema thickness 10 minutes after DNP-BSA administration • B: Edema thickness 15 minutes after DNP-BSA administration • C: Edema thickness 20 minutes after DNP-BSA administration • D: Edema thickness 30 minutes after DNP-BSA administration
# A suppressing ratio on edema of a test compound was obtained by calculation in accordance with the following equation. Edema suppression ratio (%)=[1−B/A]×100 • A: Edema thickness AUC of positive control • B: Edema thickness AUC of test compound administered group (2) Measurement Results
# [2] = system: PGE2 production from IL-1β-stimulated MG-63 cells; experiment: Suppressing action on PGE2 production from IL-1β-stimulated MG-63 cells; format: cell-based; conditions: Homo sapiens, IL-1β 1 ng/ml, 18 hours, read-out: PGE2 production suppression ratio
# Summary of the method: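 PGE2 in 18 h supernatants was quantified by EIA and expressed as % suppression relative to IL-1β-only and unstimulated controls. Cells were the MG-63 osteosarcoma line, plated at 2×10^4/well, given compound in 0.5% FBS EMEM, then 1 ng/ml IL-1β final.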
# [3] = system: LTB4 production from IgE-stimulated RBL-2H3 cells; experiment: Suppressing action on LTB4 production from IgE-stimulated RBL-2H3 cells; format: cell-based; conditions: Rattus norvegicus, 10 min, IgE/DNP-BSA stimulated RBL-2H3 cells, read-out: LTB4 production suppression ratio
# Text: (§1) 2. Suppressing Action on PGD2 and LTB4 Production from IgE-Stimulated RBL-2H3 Cells
# (§2) Suppressing action on PGD2 and LTB4 production caused by IgE as an allergic stimulant was investigated by the following method. Cells of RBL-2H3, which is a rat mastocytoma cell line (purchased from ATCC), were suspended in DEMEM medium (GIBCO) containing 10% fetal bovine serum (BioFluid), inoculated to each well of 48-well culture plate at a density of 2×10^4 cells/well and cultured overnight. Then, IgE antiserum directed to dinitrophenylated BSA (henceforth DNP-BSA) was further added to each well, and the cells were cultured for 30 minutes. Then, the medium was changed to DEMEM medium containing 0.5% fetal bovine serum, a test compound was added with each well, and DNP-BSA was further added at a final concentration of 100 ng/ml as a stimulant. Ten minutes after the stimulant was added, the culture supernatant was collected, and the PGD2 concentration and LTB4 concentration in the culture supernatant were measured by using EIA kit (CAYMAN). By using a well which was not added with the stimulant as a negative control and a well which was added only with the stimulant as a positive control, suppressing ratios on mediator production were calculated from the production amounts of the mediators in the well added with the test compound using the following equation. PGD2 or LTB4 production suppression ratio=[1−(C−B)/(A−B)]×100 • A: PGD2 or LTB4 production amount of positive control • B: PGD2 or LTB4 production amount of negative control • C: PGD2 or LTB4 production amount in well added with test compound
# (§3) Further, as control compounds for comparison, reference compound (1), 3-(2-cyclohexylmethyloxy-1,1′-biphenyl-5-yl)propionic acid described in WO99/19291, reference compounds (2) and (3), [2-(5,6,7,8-tetrahydro-5,5,8,8-tetramethyl-2-naphthalenyl)methyloxy-1,1′-biphenyl-5-yl]carboxylic acid [reference compound (2)] and 3-[3′-carboxy-2-(5,6,7,8-tetrahydro-5,5,8,8-tetramethyl-2naphthalenyl)methyloxy-1,1′-biphenyl-6-yl]propionic acid [reference compound (3)] described in U.S. Pat. No. 5,391,817 and Japanese Patent Unexamined Publication (Kokai) No. 7-22399, respectively, were used, and activities thereof were similarly measured.
# [4] = system: PGD2 production from IgE-stimulated RBL-2H3 cells; experiment: Suppressing action on PGD2 production from IgE-stimulated RBL-2H3 cells; format: cell-based; conditions: Rattus norvegicus, 10 min, IgE/DNP-BSA stimulated RBL-2H3 cells, read-out: PGD2 production suppression ratio
# Text: as §1, §2, §3
# [5] = system: zymosan-stimulated footpad edema; experiment: Mouse zymosan-stimulated footpad edema reaction; format: in vivo; conditions: ICR female mice, oral 0.1 to 500 mg/kg, compared with positive control group
# Summary of the method: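 Female ICR mice (6–7 weeks, n=8) dosed orally at 0.1 to 500 mg/kg in 0.5% methylcellulose; 1 h later zymosan (1 mg/ml, 0.02 ml) injected s.c. into right hind footpad. Edema volume at 1 and 2 h gave AUC to 2 h; suppression (%) calculated against positive control AUC.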
Structure (SMILES),suppression of footpad edema caused by IgE stimulation [1],inhibition at 0.4 µM [2],inhibition at 0.4 µM [3],inhibition at 0.4 µM [4],suppression of footpad edema caused by zymosan [5]
"O=C(O)CCc1ccc(OCC2CCCCC2)c(-c2ccc3cc(O)ccc3c2)c1 [Compound 002, 3-[4-cyclohexylmethyloxy-3-(6-hydroxynaphthalen-2-yl)phenyl]propionic acid]",suppressed the footpad edema,≥ 50%,≥ 50%,≥ 50%,suppressed footpad edema
"Nc1ccc2cc(-c3cc(CCC(=O)O)ccc3OCC3CCCC3)ccc2c1 [Compound 012, 3-[3-(6-aminonaphthalen-2-yl)-4-cyclopentylmethyloxyphenyl]propionic acid]",suppressed the footpad edema,≥ 50%,≥ 50%,≥ 50%,suppressed footpad edema
"Nc1ccc2ccc(-c3cc(CCC(=O)O)ccc3OCC3CCCC3)cc2c1 [Compound 014, 3-[3-(7-aminonaphthalen-2-yl)-4-cyclopentylmethyloxyphenyl]propionic acid]",suppressed the footpad edema,≥ 50%,≥ 50%,≥ 50%,–
"O=C(O)CCc1ccc(OCC2CCCC2)c(-c2ccc3ccccc3c2)c1 [Compound 039, 3-[4-cyclopentylmethyloxy-3-(naphthalen-2-yl)phenyl]propionic acid]",suppressed the footpad edema,≥ 50%,≥ 50%,≥ 50%,suppressed footpad edema
"O=C(O)CCc1ccc(OC2CCCC2)c(-c2ccc3ccccc3c2)c1 [Compound 043, 3-[4-cyclopentyloxy-3-(naphthalen-2-yl)phenyl]propionic acid]",suppressed the footpad edema,≥ 50%,≥ 50%,≥ 50%,suppressed footpad edema
"O=C(O)CCc1ccc(OCCC2CCCC2)c(-c2ccc3ccccc3c2)c1 [Compound 047, 3-[4-(2-cyclopentylethyloxy)-3-(naphthalen-2-yl)phenyl]propionic acid]",suppressed the footpad edema,≥ 50%,≥ 50%,≥ 50%,suppressed footpad edema
"O=C(O)CCc1ccc(OCCc2ccccc2F)c(-c2ccc3ccccc3c2)c1 [Compound 053, 3-{4-[2-(2-fluorophenyl)ethyloxy]-3-(naphthalen-2-yl)phenyl}propionic acid]",suppressed the footpad edema,≥ 50%,≥ 50%,≥ 50%,suppressed footpad edema
"O=C(O)CCc1ccc(OCC2CCCC2)c(-c2ccc3[nH]ccc3c2)c1 [Compound 100, 3-[4-cyclopentylmethyloxy-3-(1H-indol-5-yl)phenyl]propionic acid]",suppressed the footpad edema,≥ 50%,≥ 50%,≥ 50%,suppressed footpad edema
"Cn1ccc2cc(-c3cc(CCC(=O)O)ccc3OC3CCCC3)ccc21 [Compound 108, 3-[4-cyclopentyloxy-3-(1-methyl-1H-indol-5-yl)phenyl]propionic acid]",suppressed the footpad edema,≥ 50%,≥ 50%,≥ 50%,suppressed footpad edema
"CC(Oc1ccc(CCC(=O)O)cc1-c1ccc2[nH]ccc2c1)c1ccccc1 (stereo not drawn) [Compound 132, 3-[3-(1H-indol-5-yl)-4-(1-phenylethyloxy)phenyl]propionic acid]",suppressed the footpad edema,≥ 50%,≥ 50%,≥ 50%,suppressed footpad edema
"O=C(O)CCc1ccc(OCc2cccc(Cl)c2Cl)c(-c2ccc3[nH]ccc3c2)c1 [Compound 160, 3-[4-(2,3-dichlorophenylmethyloxy)-3-(1H-indol-5-yl)phenyl]propionic acid]",suppressed the footpad edema,≥ 50%,≥ 50%,≥ 50%,–
"O=C(O)CCc1ccc(OCc2ccc(Cl)c(Cl)c2)c(-c2ccc3[nH]ccc3c2)c1 [Compound 166, 3-[4-(3,4-dichlorophenylmethyloxy)-3-(1H-indol-5-yl)phenyl]propionic acid]",suppressed the footpad edema,≥ 50%,≥ 50%,≥ 50%,–
"O=C(O)CCc1ccc(OCc2cccc3ccccc23)c(-c2ccc3[nH]ccc3c2)c1 [Compound 190, 3-{3-(1H-indol-5-yl)-4-[(naphthalen-1-yl)methyloxy]phenyl}propionic acid]",suppressed the footpad edema,≥ 50%,≥ 50%,≥ 50%,–
"O=C(O)CCc1ccc(OCCc2ccccc2C(F)(F)F)c(-c2ccc3[nH]ccc3c2)c1 [Compound 214, 3-[3-(1H-indol-5-yl)-4-{2-[2-(trifluoromethyl)phenyl]-ethyloxy}phenyl]propionic acid]",suppressed the footpad edema,≥ 50%,≥ 50%,≥ 50%,–
"O=C(O)CCc1ccc(OCCc2ccc3ccccc3c2)c(-c2ccc3[nH]ccc3c2)c1 [Compound 217, 3-{4-[2-(naphthalen-2-yl)ethyloxy]-3-(1H-indol-5-yl)phenyl}propionic acid]",suppressed the footpad edema,≥ 50%,≥ 50%,≥ 50%,–
